Data: patent US11591323B2, “Muscarinic agonists as non-steroidal and non-opioid analgesics and methods of use thereof” (Barry University, priority 2019, dated 2023)
pEC50, pKd: −log10 of the molar value.

Legend:
[1] = system: ventral tegmental area (M5); test: accumulation of IPX in dissipated rat ventral tegmental area; assay type: cell-based; settings: dissipated rat VTA, in words
Experimental: Effects of compounds 6A and 7A were then measured ex vivo in dissipated rat tissues (FIG. 5). Accumulation of IPX was measured in dissipated brain cortex (rich in M1 & M3), submaxillary gland (M1 & M3), and ventral tegmental area (M5). Native tissues express about 10-times less muscarinic receptors than CHO cell lines. Accumulation of cAMP was measured in cerebellum (M2) and striatum (M4).
Rat dissipated tissues: Suspension of dissipated tissues from rat brain cortex, cerebellum, striatum, ventral tegmental area (VTA) and submaxillary glands was prepared as described previously in supplementary methods. Adult 8-weeks old male Wistar rats were scarified by cervical dislocation in accordance with current legislative and guidelines under permission of Czech Ministry of Agriculture 16OZ23113/2017-17214. Tissues were dissected immediately. Submaxillary glands were minced by scissors. Tissues were dispersed by incubation for 15 min at 37° C. in KHB supplemented with trypsin and trituration every 5 min. Large undissipated parts were removed by cell mesh. […]
Measurements of the production of cAMP and inositol phosphates: Levels of second messengers cAMP and inositol phosphates were determined in radiochemical chromatography assays as described previously. […] Samples were applied to alumina columns (1.5 g of alumina per column), washed with 2 ml ammonium acetate (pH=7.0) and eluted from columns with 4 ml ammonium acetate and measured by liquid scintillation spectrometry. […] After separation of water and organic phases, 0.6 ml of water phase was applied to Dowex columns (1.5 g of Dowex per column), washed by 20 ml of 60 mM ammonium formate/5 mM sodium borate buffer and eluted from columns with 4 ml of 1M ammonium formate/0.1 formic acid buffer and measured by liquid scintillation spectrometry.
To exclude the possibility that the observed effects of compounds 6A and 7A are the result of overexpression in the heterologous system, functional response to the compounds was measured ex vivo in dissipated native rat tissues. […] Accumulation of cAMP was measured in M2-rich cerebellum and M4-rich striatum.

[2] = molecular target: T1, M4 muscarinic receptor (Homo sapiens, UniProt P08173); test: accumulation of IPX, M4 CHO cells (M4Gq); assay type: cell-based; parameters: host or cells: CHO cells, stably transfected; settings: for RAi / E′MAX / τ / Δlog(τ/KA): M4Gq (↑IPX); for RAi: Table 8, relative to carbachol; for E′MAX / τ: Table 8; for Δlog(τ/KA): Table 8, to carbachol
T1 sequence (P08173 1-479): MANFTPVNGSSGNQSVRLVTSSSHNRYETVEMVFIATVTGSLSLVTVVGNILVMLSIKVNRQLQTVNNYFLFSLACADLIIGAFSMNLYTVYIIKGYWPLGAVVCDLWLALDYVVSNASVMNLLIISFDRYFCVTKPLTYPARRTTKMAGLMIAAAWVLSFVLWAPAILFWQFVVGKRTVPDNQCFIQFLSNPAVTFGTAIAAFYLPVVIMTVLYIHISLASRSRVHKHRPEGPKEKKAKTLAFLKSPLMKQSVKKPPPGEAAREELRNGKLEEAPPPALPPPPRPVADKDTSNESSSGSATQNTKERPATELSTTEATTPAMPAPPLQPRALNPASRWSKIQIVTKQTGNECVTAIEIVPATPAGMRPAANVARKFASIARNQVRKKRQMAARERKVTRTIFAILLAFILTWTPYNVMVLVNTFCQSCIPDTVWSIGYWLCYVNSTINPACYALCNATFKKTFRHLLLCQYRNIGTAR
Experimental: To determine level of cAMP, cells in suspension were pre-incubated for 1 h with 0.4 μM [^3H]adenine, washed, and incubated for 10 min in the presence of isobutylmethylxanthine and 10 μM forskolin. […] Incubation was ended by addition of 0.2 ml of 2.5 M HCl to the samples. Samples were applied to alumina columns (1.5 g of alumina per column), washed with 2 ml ammonium acetate (pH=7.0) and eluted from columns with 4 ml ammonium acetate and measured by liquid scintillation spectrometry. […] The incubation was stopped by addition of 0.5 ml of chloroform methanol HCl mixture (2:1:0.1). After separation of water and organic phases, 0.6 ml of water phase was applied to Dowex columns (1.5 g of Dowex per column), washed by 20 ml of 60 mM ammonium formate/5 mM sodium borate buffer and eluted from columns with 4 ml of 1M ammonium formate/0.1 formic acid buffer and measured by liquid scintillation spectrometry.
Measurements of the production of cAMP and inositol phosphates: Levels of second messengers cAMP and inositol phosphates were determined in radiochemical chromatography assays as described previously. To determine level of cAMP, cells in suspension were pre-incubated for 1 h with 0.4 μM [^3H]adenine, washed, and incubated for 10 min in the presence of isobutylmethylxanthine and 10 μM forskolin. […] Incubation was ended by addition of 0.2 ml of 2.5 M HCl to the samples. Samples were applied to alumina columns (1.5 g of alumina per column), washed with 2 ml ammonium acetate (pH=7.0) and eluted from columns with 4 ml ammonium acetate and measured by liquid scintillation spectrometry. […] For this purpose, new CHO cell lines stably expressing promiscuous G15 G-protein and M2 or M4 receptor were generated by transfection with pCMV/hygro vector and hygromycin selection. To determine the rate of formation of inositol phosphates IPX, suspended cells were pre-incubated with 0.1 μM [^3H]myo-inositol for 60 min, washed, and incubated with 10 mM LiCl for 15 min. […] The incubation was stopped by addition of 0.5 ml of chloroform methanol HCl mixture (2:1:0.1). After separation of water and organic phases, 0.6 ml of water phase was applied to Dowex columns (1.5 g of Dowex per column), washed by 20 ml of 60 mM ammonium formate/5 mM sodium borate buffer and eluted from columns with 4 ml of 1M ammonium formate/0.1 formic acid buffer and measured by liquid scintillation spectrometry.
For bi-phasic response, curves were inhibitory and stimulatory phase were fitted separately. Operational Model of Functional Agonism
[formula] where y is functional response at concentration of tested compound x, EMAX is maximal response of the system, KA is equilibrium dissociation constant and nH is slope factor. Eq. 5 was fitted to data from functional experiments. Eq. 5 was fitted to data by the two-step procedure described earlier. […] In the second step, Eq. 5 with EMAX fixed to the value determined in the first step was fitted to individual experimental data sets. Relative Intrinsic Activity

SMILES	accumulation of IPX [1]	RAi [2]	pEC50 [2]	pKd [2]	E′MAX [2]	τ [2]	Δlog(τ/KA) [2]
C[N+]1(Cc2cccs2)CC=CCC1.[I-] (centres unmarked) [Compound 7A, 1-methyl-1-[(thiophen-2-yl)methyl]-1,2,3,6-tetrahydropyridin-1-ium iodide]	negligible increase in IPX	0	–	–	–	–	–
O=C1CCCN1CC#CCN1CCCC1 [oxotremorine, reference compound]	–	4.69 ± 0.17	6.79	6.70	1.58 ± 0.04 fold over basal	0.17 ± 0.02	−0.67 ± 0.06
C1=CCN(Cc2cccs2)CC1.Cl [Compound 6A, 1-[(thiophen-2-yl)methyl]-1,2,3,6-tetrahydropyridin-1-ium chloride]	negligible increase in IPX	0	–	–	–	–	–
C[N+](C)(C)CCOC(N)=O [carbachol, reference compound]	profound accumulation of IPX	–	–	–	1.78 ± 0.05 fold over basal	0.24 ± 0.03	0
